Test results as given in ChEMBL document CHEMBL1158609, “Potent antimicrobial activity of 3-(4,5-diaryl-1H-imidazol-2-yl)-1H-indole derivatives against methicillin-resistant Staphylococcus aureus” (2010).
Converted amounts (≈) assume the structure as drawn.

Tests used:
Staphylococcus aureus [1] = experiment: Antimicrobial activity against methicillin-resistant Staphylococcus aureus; assay type: functional
Staphylococcus aureus [2] = experiment: Antimicrobial activity against methicillin-susceptible Staphylococcus aureus; assay type: functional
Salmonella enterica [3] = experiment: Antimicrobial activity against Salmonella Typhimurium ATCC 13311; assay type: functional, Salmonella enterica subsp. enterica serovar Typhimurium
Pseudomonas aeruginosa [4] = experiment: Antimicrobial activity against Pseudomonas aeruginosa ATCC 39324; assay type: functional
[5] = system: Staphylococcus epidermidis; experiment: Antimicrobial activity against Staphylococcus epidermidis ATCC 35983; assay type: functional
Bacillus subtilis [6] = experiment: Antimicrobial activity against Bacillus subtilis ATCC 14579; assay type: functional
[7] = system: Staphylococcus epidermidis; experiment: Antimicrobial activity against Staphylococcus epidermidis ATCC 13518; assay type: functional
Streptococcus pyogenes [8] = experiment: Antimicrobial activity against Streptococcus pyogenes ATCC 12386; assay type: functional
[9] = system: Streptococcus dysgalactiae; experiment: Antimicrobial activity against Streptococcus dysgalactiae ATCC 12388; assay type: functional
[10] = system: Staphylococcus epidermidis; experiment: Antimicrobial activity against Staphylococcus epidermidis ATCC 12228; assay type: functional
Streptococcus sanguinis = experiment: Antimicrobial activity against Streptococcus sanguinis ATCC 10556; assay type: functional
Streptococcus agalactiae = experiment: Antimicrobial activity against Streptococcus agalactiae ATCC 13813; assay type: functional
Enterococcus faecalis [11] = experiment: Antimicrobial activity against Enterococcus faecalis ATCC 51559; assay type: functional
Bacillus subtilis [12] = experiment: Antimicrobial activity against Bacillus subtilis ATCC 6633; assay type: functional
[13] = system: Staphylococcus saprophyticus; experiment: Antimicrobial activity against Staphylococcus saprophyticus ATCC 15305; assay type: functional
Salmonella enterica [14] = experiment: Antimicrobial activity against Salmonella Typhimurium ATCC 14028; assay type: functional, Salmonella enterica subsp. enterica serovar Typhimurium
Enterococcus faecalis [15] = experiment: Antimicrobial activity against Enterococcus faecalis ATCC 51299; assay type: functional
Pseudomonas aeruginosa [16] = experiment: Antimicrobial activity against Pseudomonas aeruginosa ATCC 19142; assay type: functional
Micrococcus luteus = experiment: Antimicrobial activity against Micrococcus luteus ATCC 10240; assay type: functional
Escherichia coli [17] = experiment: Antimicrobial activity against Escherichia coli ATCC 12435; assay type: functional
[18] = system: Streptococcus dysgalactiae; experiment: Antimicrobial activity against Streptococcus dysgalactiae ATCC 12394; assay type: functional
Streptococcus pneumoniae = experiment: Antimicrobial activity against Streptococcus pneumoniae ATCC 49150; assay type: functional
Streptococcus pyogenes [19] = experiment: Antimicrobial activity against Streptococcus pyogenes ATCC 19615; assay type: functional
Enterococcus faecalis [20] = experiment: Antimicrobial activity against Enterococcus faecalis ATCC 29212; assay type: functional
Escherichia coli [21] = experiment: Antimicrobial activity against Escherichia coli ATCC 35333; assay type: functional

Cc1[nH]c2ccccc2c1-c1nc(-c2ccc(N(C)C)cc2)c(-c2ccc(N(C)C)cc2)[nH]1
MIC (Staphylococcus aureus [1]): 2 µg/mL (≈ 4.59 µM)
MIC (Staphylococcus aureus [2]): 2 µg/mL (≈ 4.59 µM)

Cc1[nH]c2ccccc2c1-c1nc(-c2ccc(Br)cc2)c(-c2ccc(Br)cc2)[nH]1
MIC (Staphylococcus aureus [1]): 2 µg/mL (≈ 3.94 µM)
MIC (Staphylococcus aureus [2]): 2 µg/mL (≈ 3.94 µM)

Brc1ccc2[nH]cc(-c3nc(-c4ccccc4)c(-c4ccccc4)[nH]3)c2c1
MIC (Staphylococcus aureus [1]): 4 µg/mL (≈ 9.65 µM)
MIC (Staphylococcus aureus [2]): 4 µg/mL (≈ 9.65 µM)

Fc1ccc(-c2nc(-c3c[nH]c4ccc(Br)cc34)[nH]c2-c2ccc(F)cc2)cc1
MIC (Salmonella enterica [3]): > 64 µg/mL
MIC (Pseudomonas aeruginosa [4]): > 64 µg/mL
MIC (Staphylococcus aureus [1]): 1 µg/mL (≈ 2.22 µM)
MIC [5]: 2 µg/mL (≈ 4.44 µM)
MIC (Bacillus subtilis [6]): 2 µg/mL (≈ 4.44 µM)
MIC [7]: 2 µg/mL (≈ 4.44 µM)
MIC (Streptococcus pyogenes [8]): 2 µg/mL (≈ 4.44 µM)
MIC [9]: 2 µg/mL (≈ 4.44 µM)
MIC [10]: 2 µg/mL (≈ 4.44 µM)
MIC (Streptococcus sanguinis): 1 µg/mL (≈ 2.22 µM)
MIC (Streptococcus agalactiae): 2 µg/mL (≈ 4.44 µM)
MIC (Enterococcus faecalis [11]): 2 µg/mL (≈ 4.44 µM)
MIC (Bacillus subtilis [12]): 2 µg/mL (≈ 4.44 µM)
MIC [13]: 2 µg/mL (≈ 4.44 µM)
MIC (Salmonella enterica [14]): > 64 µg/mL
MIC (Enterococcus faecalis [15]): 2 µg/mL (≈ 4.44 µM)
MIC (Pseudomonas aeruginosa [16]): > 64 µg/mL
MIC (Micrococcus luteus): 1 µg/mL (≈ 2.22 µM)
MIC (Escherichia coli [17]): > 64 µg/mL
MIC [18]: 2 µg/mL (≈ 4.44 µM)
MIC (Streptococcus pneumoniae): 2 µg/mL (≈ 4.44 µM)
MIC (Streptococcus pyogenes [19]): 2 µg/mL (≈ 4.44 µM)
MIC (Enterococcus faecalis [20]): 2 µg/mL (≈ 4.44 µM)
MIC (Escherichia coli [21]): > 64 µg/mL
MIC (Staphylococcus aureus [2]): 1 µg/mL (≈ 2.22 µM)

Cc1[nH]c2ccccc2c1-c1nc(-c2ccc(Oc3ccccc3)cc2)c(-c2ccc(Oc3ccccc3)cc2)[nH]1
MIC (Staphylococcus aureus [2]): > 64 µg/mL

O=[N+]([O-])c1ccc(-c2nc(-c3c[nH]c4ccc(Br)cc34)[nH]c2-c2ccccc2)cc1
MIC (Staphylococcus aureus [2]): > 64 µg/mL

Fc1ccc(-c2nc(-c3c[nH]c4ccc(Br)cc34)[nH]c2-c2ccccc2)cc1
MIC (Staphylococcus aureus [1]): 2 µg/mL (≈ 4.63 µM)
MIC (Staphylococcus aureus [2]): 2 µg/mL (≈ 4.63 µM)

Brc1ccc2[nH]cc(-c3nc(-c4ccc(-c5ccccc5)cc4)c(-c4ccc(-c5ccccc5)cc4)[nH]3)c2c1
MIC (Staphylococcus aureus [2]): > 64 µg/mL

Cc1[nH]c2ccccc2c1-c1nc(-c2ccccc2)c(-c2ccccc2)[nH]1
MIC (Staphylococcus aureus [1]): 4 µg/mL (≈ 11.4 µM)
MIC (Staphylococcus aureus [2]): 8 µg/mL (≈ 22.9 µM)

Cc1[nH]c2ccccc2c1-c1nc(-c2ccc(F)cc2)c(-c2ccc(F)cc2)[nH]1
MIC (Staphylococcus aureus [1]): 4 µg/mL (≈ 10.4 µM)
MIC (Staphylococcus aureus [2]): 4 µg/mL (≈ 10.4 µM)

Cc1[nH]c2ccccc2c1-c1nc(-c2ccc(-c3ccccc3)cc2)c(-c2ccc(-c3ccccc3)cc2)[nH]1
MIC (Staphylococcus aureus [2]): > 64 µg/mL

Cc1[nH]c2ccccc2c1-c1nc(-c2ccc(Br)cc2)c(-c2ccccc2)[nH]1
MIC (Staphylococcus aureus [1]): 4 µg/mL (≈ 9.34 µM)
MIC (Staphylococcus aureus [2]): 4 µg/mL (≈ 9.34 µM)

Cc1[nH]c2ccccc2c1-c1nc(-c2ccc(-c3ccccc3)cc2)c(-c2ccccc2)[nH]1
MIC (Staphylococcus aureus [1]): 2 µg/mL (≈ 4.7 µM)
MIC (Staphylococcus aureus [2]): 4 µg/mL (≈ 9.4 µM)

Cc1ccc(-c2nc(-c3c(C)[nH]c4ccccc34)[nH]c2-c2ccccc2)cc1
MIC (Staphylococcus aureus [1]): 4 µg/mL (≈ 11 µM)
MIC (Staphylococcus aureus [2]): 4 µg/mL (≈ 11 µM)

Cc1[nH]c2ccccc2c1-c1nc(-c2ccc([N+](=O)[O-])cc2)c(-c2ccccc2)[nH]1
MIC (Staphylococcus aureus [1]): 8 µg/mL (≈ 20.3 µM)
MIC (Staphylococcus aureus [2]): 8 µg/mL (≈ 20.3 µM)

Cc1[nH]c2ccccc2c1-c1nc(-c2ccc(F)cc2)c(-c2ccccc2)[nH]1
MIC (Staphylococcus aureus [1]): 4 µg/mL (≈ 10.9 µM)
MIC (Staphylococcus aureus [2]): 4 µg/mL (≈ 10.9 µM)

Clc1ccc(-c2nc(-c3c[nH]c4ccc(Br)cc34)[nH]c2-c2ccccc2)cc1
MIC (Staphylococcus aureus [1]): 1 µg/mL (≈ 2.23 µM)
MIC (Staphylococcus aureus [2]): 1 µg/mL (≈ 2.23 µM)

Cc1ccc(-c2nc(-c3c[nH]c4ccc(Br)cc34)[nH]c2-c2ccccc2)cc1
MIC (Staphylococcus aureus [1]): 2 µg/mL (≈ 4.67 µM)
MIC (Staphylococcus aureus [2]): 2 µg/mL (≈ 4.67 µM)

Brc1ccc2[nH]cc(-c3nc(-c4ccc(Oc5ccccc5)cc4)c(-c4ccc(Oc5ccccc5)cc4)[nH]3)c2c1
MIC (Staphylococcus aureus [2]): > 64 µg/mL

Cc1[nH]c2ccccc2c1-c1nc(-c2ccc(Cl)cc2)c(-c2ccc(Cl)cc2)[nH]1
MIC (Staphylococcus aureus [1]): 4 µg/mL (≈ 9.56 µM)
MIC (Staphylococcus aureus [2]): 4 µg/mL (≈ 9.56 µM)

Cc1ccc(-c2nc(-c3c(C)[nH]c4ccccc34)[nH]c2-c2ccc(C)cc2)cc1
MIC (Staphylococcus aureus [1]): 8 µg/mL (≈ 21.2 µM)
MIC (Staphylococcus aureus [2]): 8 µg/mL (≈ 21.2 µM)

Cc1[nH]c2ccccc2c1-c1nc(-c2ccc(Cl)cc2)c(-c2ccccc2)[nH]1
MIC (Staphylococcus aureus [1]): 8 µg/mL (≈ 20.8 µM)
MIC (Staphylococcus aureus [2]): 8 µg/mL (≈ 20.8 µM)

Brc1ccc(-c2nc(-c3c[nH]c4ccc(Br)cc34)[nH]c2-c2ccccc2)cc1
MIC (Staphylococcus aureus [1]): 2 µg/mL (≈ 4.06 µM)
MIC (Staphylococcus aureus [2]): 2 µg/mL (≈ 4.06 µM)

Brc1ccc2[nH]cc(-c3nc(-c4ccc(-c5ccccc5)cc4)c(-c4ccccc4)[nH]3)c2c1
MIC (Staphylococcus aureus [1]): 4 µg/mL (≈ 8.16 µM)
MIC (Staphylococcus aureus [2]): 4 µg/mL (≈ 8.16 µM)

CN(C)c1ccc(-c2nc(-c3c[nH]c4ccc(Br)cc34)[nH]c2-c2ccc(N(C)C)cc2)cc1
MIC (Staphylococcus aureus [1]): 2 µg/mL (≈ 4 µM)
MIC (Staphylococcus aureus [2]): 2 µg/mL (≈ 4 µM)

O=[N+]([O-])c1ccc(-c2nc(-c3c[nH]c4ccc(Br)cc34)[nH]c2-c2ccc([N+](=O)[O-])cc2)cc1
MIC (Staphylococcus aureus [2]): > 64 µg/mL

Brc1ccc(-c2nc(-c3c[nH]c4ccc(Br)cc34)[nH]c2-c2ccc(Br)cc2)cc1
MIC (Staphylococcus aureus [2]): > 64 µg/mL

Clc1ccc(-c2nc(-c3c[nH]c4ccc(Br)cc34)[nH]c2-c2ccc(Cl)cc2)cc1
MIC (Staphylococcus aureus [1]): 2 µg/mL (≈ 4.14 µM)
MIC (Staphylococcus aureus [2]): 2 µg/mL (≈ 4.14 µM)

Cc1ccc(-c2nc(-c3c[nH]c4ccc(Br)cc34)[nH]c2-c2ccc(C)cc2)cc1
MIC (Staphylococcus aureus [1]): 4 µg/mL (≈ 9.04 µM)
MIC (Staphylococcus aureus [2]): 2 µg/mL (≈ 4.52 µM)

Cc1[nH]c2ccccc2c1-c1nc(-c2ccc([N+](=O)[O-])cc2)c(-c2ccc([N+](=O)[O-])cc2)[nH]1
MIC (Staphylococcus aureus [2]): > 64 µg/mL

CC(=O)NC[C@H]1CN(c2ccc(N3CCOCC3)c(F)c2)C(=O)O1 [LINEZOLID]
MIC (Staphylococcus aureus [2]): 1 µg/mL (≈ 2.96 µM)

Cc1onc(-c2ccccc2)c1C(=O)N[C@@H]1C(=O)N2[C@@H]1SC(C)(C)[C@@H]2C(=O)O [OXACILLIN]
MIC (Staphylococcus aureus [1]): > 16 µg/mL
MIC (Staphylococcus aureus [2]): 0.5 µg/mL (≈ 1.25 µM)

CN[C@H](CC(C)C)C(=O)N[C@H]1C(=O)N[C@@H](CC(N)=O)C(=O)N[C@H]2C(=O)N[C@H]3C(=O)N[C@H](C(=O)N[C@H](C(=O)O)c4cc(O)cc(O)c4-c4cc3ccc4O)[C@H](O)c3ccc(c(Cl)c3)Oc3cc2cc(c3O[C@@H]2O[C@H](CO)[C@@H](O)[C@H](O)[C@H]2O[C@H]2C[C@](C)(N)[C@H](O)[C@H](C)O2)Oc2ccc(cc2Cl)[C@H]1O [VANCOMYCIN]
MIC (Salmonella enterica [3]): > 64 µg/mL
MIC (Pseudomonas aeruginosa [4]): > 64 µg/mL
MIC (Bacillus subtilis [6]): 1 µg/mL (≈ 0.69 µM)
MIC [7]: 0.5 µg/mL (≈ 0.345 µM)
MIC (Streptococcus pyogenes [8]): 2 µg/mL (≈ 1.38 µM)
MIC [9]: 0.5 µg/mL (≈ 0.345 µM)
MIC (Streptococcus sanguinis): 1 µg/mL (≈ 0.69 µM)
MIC (Streptococcus agalactiae): 1 µg/mL (≈ 0.69 µM)
MIC (Enterococcus faecalis [11]): > 64 µg/mL
MIC (Bacillus subtilis [12]): 0.25 µg/mL (≈ 0.173 µM)
MIC [13]: 2 µg/mL (≈ 1.38 µM)
MIC (Salmonella enterica [14]): > 64 µg/mL
MIC (Enterococcus faecalis [15]): 16 µg/mL (≈ 11 µM)
MIC (Pseudomonas aeruginosa [16]): > 64 µg/mL
MIC (Micrococcus luteus): 0.25 µg/mL (≈ 0.173 µM)
MIC (Escherichia coli [17]): > 64 µg/mL
MIC [18]: 1 µg/mL (≈ 0.69 µM)
MIC (Streptococcus pneumoniae): 4 µg/mL (≈ 2.76 µM)
MIC (Streptococcus pyogenes [19]): 1 µg/mL (≈ 0.69 µM)
MIC (Escherichia coli [21]): > 64 µg/mL
